Assay results taken from patent US6946459B2, “CRYSTALLINE FORMS OF 1S-[1ALPHA(2S*,3R*), 9ALPHA]6, 10-DIOXO-N-(2-ETHOXY-5-OXO-TETRAHYDRO-3-FURANYL)-9[[(1-ISOQUINOLYL) CARBONYL]AMINO]OCTAHYDRO-6H-PIRIDAZINO[1,2-A][1,2]DIAZEPIN-1-CARBOXAMIDE” (Aventis Pharma S. A., priority 1998, dated 2005).
“Also recorded” adds a separate entry of the source.

Tests used:
[1] = Sample left 7 days in a chamber at 96% relative humidity (32° C.); type: physicochemical; settings: 7 days at 96% relative humidity; for Hygroscopicity (in words): compared with form A
Procedure: The non-hygroscopicity was confirmed by leaving a sample for 7 days in a chamber at 96% relative humidity (at 32° C.) An absorption of water of approximately 0.15% was observed. […] The same situation pertains regarding the amorphous form.

[2] = Hygroscopicity curve (water sorption isotherm), Dynamic Vapor Sorption DVS 1; type: physicochemical; design: Sorption / Desorption: unit not given here; settings: for Hygroscopicity (in words): sorption cycle / general statement
Procedure: Hygroscopicity Curve (or Water Sorption Isotherm)
The water sorption isotherms were obtained using a Dynamic Vapor Sorption DVS 1 device (Surface Measurements System Ltd) at a constant temperature and under a more or less hydrated nitrogen atmosphere. The degree of relative humidity (RH) of the atmosphere was modified in stages. The passage from one stage to the next is carried out when the weight of the sample to be analyzed has reached a constant value.

[3] = RH 0.0 %, water sorption isotherm, constant temperature
[4] = RH 0.0 %, water sorption isotherm, constant temperature, water uptake (%)

CCO[C@@H]1OC(=O)C[C@@H]1NC(=O)[C@@H]1CCCN2C(=O)CC[C@H](NC(=O)c3nccc4ccccc34)C(=O)N12 [form A]
Absorption of water [1]: approximately 0.15%
Desorption [2, 3]: 0.11
Sorption [2, 4]: 0.00
Desorption ([2]; RH 12.0 %): 0.12
Sorption ([2]; RH 12.0 %): 0.03
Desorption ([2]; RH 21.0 %): 0.14
Sorption ([2]; RH 21.0 %): 0.05
Desorption ([2]; RH 32.0 %): 0.19
Sorption ([2]; RH 32.0 %): 0.07
Desorption ([2]; RH 43.0 %): 0.21
Sorption ([2]; RH 43.0 %): 0.09
Desorption ([2]; RH 51.0 %): 0.22
Sorption ([2]; RH 51.0 %): 0.11
Desorption ([2]; RH 57.0 %): 0.21
Sorption ([2]; RH 57.0 %): 0.13
Desorption ([2]; RH 66.0 %): 0.21
Sorption ([2]; RH 66.0 %): 0.14
Desorption ([2]; RH 75.0 %): 0.21
Sorption ([2]; RH 75.0 %): 0.14
Desorption ([2]; RH 80.0 %): 0.21
Sorption ([2]; RH 80.0 %): 0.16
Desorption ([2]; RH 90.0 %): 0.19
Sorption ([2]; RH 90.0 %): 0.14
Desorption ([2]; RH 96.0 %): 0.06
Sorption ([2]; RH 96.0 %): 0.06
Hygroscopicity (in words) [2]: absence of hygroscopicity; also recorded: not hygroscopic
Water uptake during the sorption cycle ([2]; whole sorption cycle, RH 0 to 96 %): < 0.2%

CCO[C@@H]1OC(=O)C[C@@H]1NC(=O)[C@@H]1CCCN2C(=O)CC[C@H](NC(=O)c3nccc4ccccc34)C(=O)N12 [form B, 1S-[1alpha (2R, 3S), 9alpha]6,10-dioxo-N-(2-ethoxy-5-oxo-tetrahydro-3-furanyl)-9[[(1-isoquinolyl)carbony]amino]octahydro-6H-pyridazino[1,2-a][1,2]diazepin-1-carboxamide]
Absorption of water [1]: 7%
Hygroscopicity (in words) [1]: more hygroscopic
Desorption [2, 3]: −0.11
Sorption [2, 4]: 0.00
Desorption ([2]; RH 12.0 %): 1.42
Sorption ([2]; RH 12.0 %): 1.41
Desorption ([2]; RH 21.0 %): 2.33
Sorption ([2]; RH 21.0 %): 2.36
Desorption ([2]; RH 32.0 %): 3.14
Sorption ([2]; RH 32.0 %): 3.23
Desorption ([2]; RH 43.0 %): 3.75
Sorption ([2]; RH 43.0 %): 3.88
Desorption ([2]; RH 51.0 %): 4.13
Sorption ([2]; RH 51.0 %): 4.26
Desorption ([2]; RH 57.0 %): 4.40
Sorption ([2]; RH 57.0 %): 4.53
Desorption ([2]; RH 66.0 %): 4.75
Sorption ([2]; RH 66.0 %): 4.92
Desorption ([2]; RH 75.0 %): 5.08
Sorption ([2]; RH 75.0 %): 5.27
Desorption ([2]; RH 80.0 %): 5.30
Sorption ([2]; RH 80.0 %): 5.45
Desorption ([2]; RH 90.0 %): 5.96
Sorption ([2]; RH 90.0 %): 5.93
Desorption ([2]; RH 96.0 %): 6.86
Sorption ([2]; RH 96.0 %): 6.86

CCO[C@@H]1OC(=O)C[C@@H]1NC(=O)[C@@H]1CCCN2C(=O)CC[C@H](NC(=O)c3nccc4ccccc34)C(=O)N12 [AMORPHOUS, 1S-[1alpha(2R, 3S), 9alpha]6, 10-dioxo-N-(2-ethoxy-5-oxo-tetrahydro-3-furanyl)-9[[(1-isoquinolyl)carbonyl]amino]octahydro-6H-pyridazino[1,2-a][1, 2]diazepin-1-carboxamide, reference compound]
Hygroscopicity (in words) [1]: more hygroscopic
Desorption [2, 3]: −0.20
Sorption [2, 4]: 0.00
Desorption ([2]; RH 12.0 %): 1.43
Sorption ([2]; RH 12.0 %): 0.67
Desorption ([2]; RH 21.0 %): 2.09
Sorption ([2]; RH 21.0 %): 0.97
Desorption ([2]; RH 32.0 %): 2.58
Sorption ([2]; RH 32.0 %): 1.29
Desorption ([2]; RH 43.0 %): 2.94
Sorption ([2]; RH 43.0 %): 1.60
Desorption ([2]; RH 51.0 %): 3.19
Sorption ([2]; RH 51.0 %): 1.83
Desorption ([2]; RH 57.0 %): 3.35
Sorption ([2]; RH 57.0 %): 2.03
Desorption ([2]; RH 66.0 %): 3.61
Sorption ([2]; RH 66.0 %): 2.37
Desorption ([2]; RH 75.0 %): 3.90
Sorption ([2]; RH 75.0 %): 2.90
Desorption ([2]; RH 80.0 %): 4.12
Sorption ([2]; RH 80.0 %): 3.71
Desorption ([2]; RH 90.0 %): 4.94
Sorption ([2]; RH 90.0 %): 5.11
Desorption ([2]; RH 96.0 %): 5.93
Sorption ([2]; RH 96.0 %): 5.93
Hygroscopicity (in words) ([2]; listed as Compound (I)): hygroscopic
